In general, Ki refers to the equilibrium dissociation constant of an inhibitor or competing ligand from its target.

The source of these data is paper PMC7587383, “Pimarane Diterpenoids from the Seeds of Caesalpinia minax as PTP1B Inhibitors and Insulin Sensitizers” (Molecules, 2020).

Structures are written as SMILES.

The target of the test is T1, Protein-tyrosine phosphatase 1B (PTP1B) (Homo sapiens, UniProt P18031).
T1 construct: gene PTPN1
T1 sequence (P18031 1-435): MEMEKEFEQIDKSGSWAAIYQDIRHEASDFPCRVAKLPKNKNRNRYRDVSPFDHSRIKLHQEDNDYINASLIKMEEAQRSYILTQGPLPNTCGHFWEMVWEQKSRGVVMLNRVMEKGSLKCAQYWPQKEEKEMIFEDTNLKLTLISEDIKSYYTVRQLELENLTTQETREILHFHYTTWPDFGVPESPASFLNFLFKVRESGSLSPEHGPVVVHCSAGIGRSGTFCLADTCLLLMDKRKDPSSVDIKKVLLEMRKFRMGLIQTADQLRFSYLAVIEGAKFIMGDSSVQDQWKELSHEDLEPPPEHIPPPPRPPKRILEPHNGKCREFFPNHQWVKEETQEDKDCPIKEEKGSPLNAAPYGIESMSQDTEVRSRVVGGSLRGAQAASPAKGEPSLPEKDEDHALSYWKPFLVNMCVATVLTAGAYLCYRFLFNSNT
Put plainly: pNPP dephosphorylation assay with human recombinant PTP1B; Lineweaver-Burk and Dixon plots. It is filed as biochemical.

For `C=C[C@@]1(C)CCC2=C(C1)C(=O)C[C@H]1C(C)(C)C[C@H](O)C[C@]21C` [compound 1, 2α-hydroxy-7-oxo-pimara-8(9),15-diene], the Ki was found to be 13.7 ± 2.72 µM.
